Article PMC9399405, “CD8 T cell function and cross-reactivity explored by stepwise increased peptide-HLA versus TCR affinity” (Frontiers in Immunology, 2022)
pKd: −log10 of the molar value.

System: HLA-A2
Test: Blue peptide (Cy5-labeled HBVc) kinetic and isotherm determination
Format: binding, human
Description: In short, for kon measurements on T2 (HLA-A2^pos) and C1R-A3 (HLA-A2^neg) cells, baseline Cy5 cell auto-fluorescence was recorded for 30s with an LSRII instrument. Titrated amounts of Cy5-labeled HBVc blue peptide (from 1 pM to 1 uM final concentration) were then added to the tube and association of the blue peptide to HLA-A2 was recorded for 5 minutes. For koff dissociation assays, 2x10^6 HLA-A2^pos (T2) and HLA-A2^neg (C1R-A3) cells were stained with 1 μM blue peptide and incubated for 1h in the dark. After washing, baseline Cy5 staining was recorded for 30s, before adding excess of FACS buffer and recording fluorescence intensity (gMFI) for 1h under temperature control. Additionally, isotherm titration experiments were performed to validate the value of the blue peptide dissociation equilibrium constant KD. Cells were stained with titrated amounts of the blue peptide (from 1 pM to 1 uM) for 1h at 4°C or 37°C. After washing, Cy5 gMFI was recorded on an LSRII instrument to determine concentration-associated maximal staining at equilibrium conditions (n = 5). All kinetic and isotherm analyses were done with the corresponding best fit equations using Prism software (GraphPad, v.9.1.1) and correction of non-specific staining values found on control HLA-A2^neg cells (nonlinear regression for kon = association kinetics - one conc. of ligand, for koff = dissociation/one phase exponential decay and for KD = one site - total and nonspecific binding).

[1] = HLA-A2pos and HLA-A2neg cells in parallel, flow cytometry

FLPSDC*-(Cy5)-FPSV [blue peptide]
peptide:HLA association kon [1]: 23000 M⁻¹ s⁻¹
peptide:HLA dissociation koff [1]: 0.0012 s⁻¹
pKd (T2 (HLA-A2pos) vs C1R-A3 (HLA-A2neg) cells, isotherm titration 1 pM to 1 uM, 1h, n = 5, read-out: equilibrium dissociation constant KD for HLA-A2): 7.28
